Results on four molecules are retold here after US10648012B2, “Assay for inhibitors of equilibrative or concentrative nucleoside transporters” (ALBERT EINSTEIN COLLEGE OF MEDICINE OF YESHIVA UNIVERSITY, priority 2013, dated 2020).

Series [1] concerns the target T1, PfENT1 (Plasmodium falciparum, UniProt Q8IDM6).
T1 sequence (Q8IDM6 1-422): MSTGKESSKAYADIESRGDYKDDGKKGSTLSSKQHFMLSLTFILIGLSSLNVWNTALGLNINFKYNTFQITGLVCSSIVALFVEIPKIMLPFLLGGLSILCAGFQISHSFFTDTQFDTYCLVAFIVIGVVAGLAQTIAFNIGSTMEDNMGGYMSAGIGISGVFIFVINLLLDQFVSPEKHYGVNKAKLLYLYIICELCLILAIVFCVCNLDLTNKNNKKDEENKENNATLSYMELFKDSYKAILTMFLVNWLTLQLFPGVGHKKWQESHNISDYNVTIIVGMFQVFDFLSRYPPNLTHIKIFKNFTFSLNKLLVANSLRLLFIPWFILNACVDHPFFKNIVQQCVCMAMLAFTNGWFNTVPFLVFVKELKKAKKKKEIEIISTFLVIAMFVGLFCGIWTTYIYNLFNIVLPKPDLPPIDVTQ
Conditions: cited from earlier work.

Another series relates to fui1Δ yeast. The series is described as follows: 5-FUrd cytotoxicity assay, growth (OD600) of parental fui1Δ yeast. Type of series: cell-based. The conditions noted are these: Saccharomyces cerevisiae, 9.5 h, read-out: 5-FUrd IC50 for killing. On the procedure:
(§1) Concentration dependence of 5-FUrd cytotoxic effects on PfENT1-expressing fui1Δ S. cerevisiae and on the parental fui1Δ strain: To determine the dose-response relationship for killing by 5 FUrd, 200 μl cultures in rich media (yeast extract, peptone, 2% dextrose, YPD) were inoculated with 3×10^6 cells/ml of PfENT1-expressing fui1Δ yeast and fui1Δ yeast. The cultures were grown in 96-well microtiter plates at 30° C., without shaking, in the absence of and in the presence of increasing concentrations of 5-FUrd (range 0.1-1,000 μM). After 570 minutes, the OD600 was measured using a BioRad Benchmark Plus microplate reader to determine the extent of cell growth. The OD600 was plotted as a function of drug concentration and the IC50 for 5-FUrd was calculated (FIG. 2). […] Though yeast grow optimally with constant aeration, a similar 5-FUrd IC50 was obtained for PfENT1-expressing fui1Δ yeast whether the plate was shaken continuously at 200 rpm or unshaken for 570 minutes of growth (IC50=9 μM).

A further series relates to WT yeast. Put plainly: 5-FUrd IC50 on WT yeast after storage of the 5-FUrd sample. The format is cell-based. Conditions: Saccharomyces cerevisiae, 90 h. On the procedure:
as §1
5-FUrd Stability. Stability of 5-FUrd under the assay conditions is essential. The assay will involve yeast growth in the presence of 5-FUrd for 10-16 hrs at 30° C. To test 5-FUrd stability a sample of 5-FUrd was split into two aliquots. One was stored at −20° C. and the other at 30° C. for 90 hrs. The 5-FUrd IC50 was then determined for WT yeast as described above. […]

Series [2] addresses T1, PfENT1. Put plainly: Inhibition of [3H]-adenine uptake by PfENT1-expressing Xenopus oocytes. The format is cell-based. Conditions: increasing concentrations of 5-FUrd.
Series [3] can be described thus: 5-FUrd stability under the assay growth conditions. Conditions: 30° C. The format is physicochemical. On the procedure:
5-FUrd Stability. Stability of 5-FUrd under the assay conditions is essential. The assay will involve yeast growth in the presence of 5-FUrd for 10-16 hrs at 30° C. To test 5-FUrd stability a sample of 5-FUrd was split into two aliquots. One was stored at −20° C. and the other at 30° C. for 90 hrs. The 5-FUrd IC50 was then determined for WT yeast as described above. […] Thus, 5-FUrd is stable under the assay growth conditions for at least 90 hrs. The assay should only require 10-16 hrs of growth, so 5-FUrd is stable on the timescale of the assay.

The test system of series [4] is PfENT1-expressing fui1Δ yeast. The series is described as follows: 5-FUrd cytotoxicity assay, growth (OD600) of PfENT1-expressing fui1Δ yeast. Type of series: cell-based. Conditions: Saccharomyces cerevisiae, 9.5 h. The method, then:
as §1

Where two headings read alike, the source gives them in different places.

On to `COc1cc(C(=O)OCCCN2CCCN(CCCOC(=O)c3cc(OC)c(OC)c(OC)c3)CC2)cc(OC)c1OC` [dilazep], for which the “inhibition of PfENT1” value on PfENT1 [1] is “do not inhibit”.

`O=c1[nH]c(=O)n([C@@H]2O[C@H](CO)[C@@H](O)[C@H]2O)cc1F` [5-FUrd, 5-fluorouridine]: the IC50 was determined as 6400 µM in the series on fui1Δ yeast; 60 ± 3 µM in the series on WT yeast (5-FUrd sample stored at 30° C. for 90 hrs, n=3); 46 ± 2 µM in the series with WT yeast (5-FUrd sample stored at −20° C. for 90 hrs); 9 µM in series [4] (read-out: 5-FUrd IC50, shaken versus unshaken comparison); 12 µM in series [4] (read-out: 5-FUrd IC50 for killing). The molecule also had a Ki on PfENT1 [2] of 1100 µM. Further, in series [3], the “time stable under the assay growth conditions” value is “at least 90 hrs”.

Turning to `OCCN(CCO)c1nc(N2CCCCC2)c2nc(N(CCO)CCO)nc(N3CCCCC3)c2n1` [dipyridamole], at PfENT1 [1], the “inhibition of PfENT1” value is listed as “do not inhibit”.

Turning to `O=[N+]([O-])c1ccc(CSc2ncnc3c2ncn3[C@@H]2O[C@H](CO)[C@@H](O)[C@H]2O)cc1` [p-nitrobenzylthioinosine], the “inhibition of PfENT1” value at PfENT1 [1] was “do not inhibit”.

As usually defined, the IC50 is the concentration that gives 50% inhibition. As a reminder, the Ki is a measure of affinity in units of concentration, obtained from inhibition or displacement. A high value points to a looser hold on the target.
